In ChEMBL document CHEMBL1149210, “A novel series of potent and selective small molecule inhibitors of the complement component C1s” (Bioorg Med Chem Lett, 2004):

Tests used:
[1] = target: T1, Complement C1s subcomponent (Homo sapiens, UniProt P09871); assay: In vitro binding affinity towards human Complement C1s subcomponent
T1 sequence (P09871 whole entry): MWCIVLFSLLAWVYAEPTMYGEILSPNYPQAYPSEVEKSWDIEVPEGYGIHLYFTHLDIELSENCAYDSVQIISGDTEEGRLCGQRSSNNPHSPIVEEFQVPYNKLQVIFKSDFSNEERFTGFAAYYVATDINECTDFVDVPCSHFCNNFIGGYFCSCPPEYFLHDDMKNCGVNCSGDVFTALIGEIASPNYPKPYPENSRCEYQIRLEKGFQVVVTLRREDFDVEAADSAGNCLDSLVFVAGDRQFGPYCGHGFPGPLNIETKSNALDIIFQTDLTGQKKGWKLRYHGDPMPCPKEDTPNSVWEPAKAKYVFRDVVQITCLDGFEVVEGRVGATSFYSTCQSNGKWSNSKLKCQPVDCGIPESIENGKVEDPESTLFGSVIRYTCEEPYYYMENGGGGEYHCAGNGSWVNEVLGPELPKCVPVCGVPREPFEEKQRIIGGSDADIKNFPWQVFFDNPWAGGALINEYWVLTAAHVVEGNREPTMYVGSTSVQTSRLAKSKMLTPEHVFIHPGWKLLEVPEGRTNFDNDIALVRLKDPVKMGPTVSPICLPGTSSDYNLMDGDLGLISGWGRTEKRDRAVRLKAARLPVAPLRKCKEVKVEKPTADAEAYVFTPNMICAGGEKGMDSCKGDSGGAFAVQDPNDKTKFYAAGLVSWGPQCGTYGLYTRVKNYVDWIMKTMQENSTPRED

Serine protease 1 = Serine protease 1 (Homo sapiens, UniProt P07477); assay: In vitro binding affinity towards trypsin was determined
Sequence of Serine protease 1 (P07477 whole entry): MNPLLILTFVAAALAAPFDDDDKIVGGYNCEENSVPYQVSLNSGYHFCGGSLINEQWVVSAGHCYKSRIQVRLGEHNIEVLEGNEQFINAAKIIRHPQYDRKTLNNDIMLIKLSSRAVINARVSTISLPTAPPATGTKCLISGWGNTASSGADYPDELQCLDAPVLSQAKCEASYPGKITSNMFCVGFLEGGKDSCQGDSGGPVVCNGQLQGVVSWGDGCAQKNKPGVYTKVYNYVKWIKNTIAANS

Coagulation factor X = Coagulation factor X (Homo sapiens, UniProt P00742); assay: In vitro binding affinity towards Coagulation factor X was determined
Sequence of Coagulation factor X (P00742 41-179 limits assumed): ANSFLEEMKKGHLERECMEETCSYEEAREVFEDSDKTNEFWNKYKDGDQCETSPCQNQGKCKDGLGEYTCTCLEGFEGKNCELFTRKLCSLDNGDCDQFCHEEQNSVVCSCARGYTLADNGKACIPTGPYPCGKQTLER
Sequence of Coagulation factor X (P00742 235-488 limits assumed): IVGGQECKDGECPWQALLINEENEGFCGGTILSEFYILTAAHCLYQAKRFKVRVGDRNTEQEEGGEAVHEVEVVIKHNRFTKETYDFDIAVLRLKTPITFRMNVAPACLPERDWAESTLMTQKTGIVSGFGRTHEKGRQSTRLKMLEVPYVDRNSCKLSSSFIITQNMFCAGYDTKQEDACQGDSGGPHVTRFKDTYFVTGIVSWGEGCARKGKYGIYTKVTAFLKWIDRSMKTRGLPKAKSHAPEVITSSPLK

Prothrombin = Prothrombin (Homo sapiens, UniProt P00734); assay: In vitro binding affinity towards thrombin was determined
[2] = In vitro binding affinity towards human Complement C1r subcomponent
Plasminogen = Plasminogen (Rattus norvegicus, UniProt Q01177); assay: In vitro binding affinity towards plasmin was determined
Sequence of Plasminogen (Q01177 97-581 limits assumed): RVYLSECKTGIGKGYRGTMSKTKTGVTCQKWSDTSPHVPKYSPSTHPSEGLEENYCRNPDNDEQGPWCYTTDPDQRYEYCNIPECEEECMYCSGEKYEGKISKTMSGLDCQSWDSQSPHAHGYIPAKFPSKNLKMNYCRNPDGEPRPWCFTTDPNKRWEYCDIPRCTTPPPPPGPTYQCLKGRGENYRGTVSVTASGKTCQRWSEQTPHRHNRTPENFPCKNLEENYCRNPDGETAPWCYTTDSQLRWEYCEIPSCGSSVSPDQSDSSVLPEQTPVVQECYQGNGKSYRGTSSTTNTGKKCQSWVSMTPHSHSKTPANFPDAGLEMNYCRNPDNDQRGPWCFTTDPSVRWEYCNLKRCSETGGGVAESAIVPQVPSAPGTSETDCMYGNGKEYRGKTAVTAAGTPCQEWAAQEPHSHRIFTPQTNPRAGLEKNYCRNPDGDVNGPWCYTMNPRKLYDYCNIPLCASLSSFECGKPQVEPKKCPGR
Sequence of Plasminogen (Q01177 582-812 limits assumed): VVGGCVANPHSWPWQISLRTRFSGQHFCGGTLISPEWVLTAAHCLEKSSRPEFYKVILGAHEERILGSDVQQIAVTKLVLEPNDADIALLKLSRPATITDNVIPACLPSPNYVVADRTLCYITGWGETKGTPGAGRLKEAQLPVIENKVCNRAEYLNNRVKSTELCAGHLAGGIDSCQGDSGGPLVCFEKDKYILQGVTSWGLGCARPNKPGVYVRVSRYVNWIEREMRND

Row | SMILES | Ki [1] | also measured
1 | COc1ccc(-c2csc(-c3cc(C(=N)N)sc3SC)n2)cc1 | 900 nM | 
2 | CSc1sc(C(=N)N)cc1-c1nc(C2CCCCC2)cs1 | 4700 nM | 
3 | Cc1sc(C(=N)N)cc1-c1nc(-c2ccccc2)cs1 | 6000 nM | 
4 | CSc1sc(C(=N)N)cc1-c1nc(-c2cnn(-c3ccccc3)c2OCCC(C)C)cs1 | 1500 nM | 
5 | CSc1sc(C(=N)N)cc1-c1nc(-c2ccc(Cl)cc2Cl)cs1 | 3000 nM | 
6 | CSc1sc(C(=N)N)cc1-c1nc(-c2ccccc2C)cs1 | 850 nM | 
7 | N=C(N)c1cc(-c2nc(-c3ccccc3)cs2)c(SCc2ccccc2)s1 | > 20000 nM | 
8 | CSc1sc(C(=N)N)cc1-c1nc(-c2cccnc2Cl)cs1 | 1020 nM | 
9 | CSc1sc(C(=N)N)cc1-c1nc(-c2ccc([N+](=O)[O-])cc2)cs1 | 1000 nM | 
10 | CSc1sc(C(=N)N)cc1-c1nc(-c2cnn(C)c2)cs1 | 460 nM | 
11 | COc1ccccc1-c1csc(-c2cc(C(=N)N)sc2SC)n1 | 850 nM | 
12 | CSc1sc(C(=N)N)cc1-c1nc(-c2csc3ccccc23)cs1 | 450 nM | 
13 | CCCc1c(-c2csc(-c3cc(C(=N)N)sc3SC)n2)cnn1-c1ccccn1 | 70 nM | Ki (Serine protease 1): 180 nM; Ki (Coagulation factor X): 5000 nM; Ki (Prothrombin): > 50000 nM; Ki [2]: > 50000 nM; Ki (Plasminogen): 5000 nM
14 | CSc1sc(C(=N)N)cc1-c1nc(-c2ccc(Cl)c([N+](=O)[O-])c2)cs1 | 860 nM | 
15 | CCSc1sc(C(=N)N)cc1-c1nc(-c2ccccc2)cs1 | > 20000 nM | 
16 | N=C(N)c1cc(-c2nc(-c3ccccc3)cs2)cs1 | > 20000 nM | 
17 | CSc1sc(C(=N)N)cc1-c1nc(-c2cnn(-c3ccccc3)c2OCC2CCC2)cs1 | 530 nM | 
18 | CCCc1c(-c2csc(-c3cc(C(=N)N)sc3SC)n2)cnn1C | 330 nM | 
19 | CSc1sc(C(=N)N)cc1-c1ncc(-c2ccccc2)s1 | 3250 nM | 
20 | CSc1sc(C(=N)N)cc1-c1nc(-c2ccccc2)cs1 | 560 nM | 

Row | SMILES | Ki [1] | also measured
21 | CSc1sc(C(=N)N)cc1-c1nc(-c2ccc(C)cc2)cs1 | 420 nM | 
22 | CCCc1nn(C)cc1-c1csc(-c2cc(C(=N)N)sc2SC)n1 | 190 nM | 
23 | COc1cccc(-c2csc(-c3cc(C(=N)N)sc3SC)n2)c1 | 470 nM | 
24 | CCCc1c(-c2csc(-c3cc(C(=N)N)sc3SC)n2)cnn1-c1ccccc1 | 60 nM | 
25 | CSc1sc(C(=N)N)cc1-c1nc(-c2cnn(-c3ccccc3)c2)cs1 | 150 nM | 
26 | COc1ccc(-c2csc(-c3cc(C(=N)N)sc3SC)n2)c(OC)c1 | 640 nM | 
27 | COc1sc(C(=N)N)cc1-c1nc(-c2ccccc2)cs1 | 14400 nM | 
28 | CCc1sc(C(=N)N)cc1-c1nc(-c2ccccc2)cs1 | 3000 nM | 
29 | CSc1sc(C(=N)N)cc1-c1nc(-c2cccs2)cs1 | 700 nM | 
30 | CSc1sc(C(=N)N)cc1-c1nc(-c2cnccc2Cl)cs1 | 870 nM | 
31 | CSc1sc(C(=N)N)cc1-c1nc(COc2ccccc2)cs1 | 520 nM | 
32 | N=C(N)c1cc(-c2nc(-c3ccccc3)cs2)c(C(F)(F)F)s1 | 12500 nM | 
33 | CCOc1c(-c2csc(-c3cc(C(=N)N)sc3SC)n2)cnn1-c1ccccc1 | 90 nM | 
34 | CS(=O)(=O)c1sc(C(=N)N)cc1-c1nc(-c2ccccc2)cs1 | > 28000 nM | 
35 | CSc1sc(C(=N)N)cc1-c1nc(Cc2ccccc2)cs1 | 1060 nM | 
36 | CSc1sc(C(=N)N)cc1-c1nc(-c2ccc(-c3ccccc3)cc2)cs1 | 15400 nM | 
37 | CSc1sc(C(=N)N)cc1-c1nc(-c2cccc(C)c2)cs1 | 960 nM | 
38 | CSc1sc(C(=N)N)cc1-c1nc(-c2ccc(Cl)cc2)cs1 | 436 nM | 
39 | CSc1sc(C(=N)N)cc1-c1nc(-c2ccc3ccccc3c2)cs1 | 490 nM | 
